“Also recorded” adds a separate entry of the source.
Key:
[1] = test system: protein synthesis in the mPFC of cHets; assay: SUnSET puromycin incorporation assay (protein synthesis) in mPFC after (1-3)IGF-1 treatment; format: in vivo, mouse
Experimental: Protein synthesis is a critical output of mTOR signaling, particularly downstream of P70 Ribosomal S6 Kinase (S6K1).
(1-3)IGF-1 was acquired from VWR/Bachem (catalog #H-2468.1000) and dissolved in saline with 0.01% BSA fresh every day. Intraperitoneal injections of 10 mg kg′ (1-3)IGF-1 or vehicle were delivered daily at 8 a.m. starting on P14 and ending on P85. […] The S6K1 inhibitor PF-4708671 was acquired from Medkoo Biosciences (#406432) dissolved in 10% DMSO, 10% tween 80 and 80% water. (1-3)IGF-1 (10 mg kg′) and PF-4708671 (50 mg kg^−1) or vehicle were injected subcutaneously into pups from P0 to P7. Rapamycin was acquired from LC laboratories (R-5000) and dissolved in 4% ethanol, 5% tween-80, and 5% PEG400 in PBS. (1-3)IGF-1 (10 mg kg′) and Rapamycin (1 mg kg′) or vehicle were injected subcutaneously into pups from P0 to P7. SB216763 was acquired from TOCRIS (#1616) and dissolved in 5% DMSO and 0.9% saline in dH20. SB216763 (0.5 mg kg′) was injected subcutaneously into pups from P0 to P7.
300 μm coronal prefrontal cortical slices were obtained from postnatal day 7 (P7) and adult mice. Slices were allowed to recover in artificial cerebrospinal fluid (in mM: 124 NaCl, 2.8 KCl, 2 CaCl2, 1.25 NaH2P04, 1.25 MgSO4, 26 NaHCO3, 10 Dextrose) for 2 h at 32° C. Puromycin (5 μg ml-1) was applied to slices for 40 min at 32° C. to label newly synthesized proteins. Slices were then snap frozen on dry ice and stored at −80° C. until used. Protein (50 μg) was loaded on 4-12% gradient gels, transferred onto polyvinylidene difluoride membranes, and probed with anti-puromycin antibody (1:5,000, Millipore, MABE343). Anti-mouse HRP-tagged secondary antibody was used and chemiluminiscence was developed using standard ECL reagents. Quantification was done by measuring intensity of each lane from 14 to 191 kDa, subtracting it from the intensity of the unlabeled lane and normalized to loading control.

[2] = test system: Dyrk1a cHets; assay: Neonatal (1-3)IGF-1 injection in Dyrk1a cHet pups: cortex mass, layer V soma size, p-S6; format: in vivo, mouse
Experimental: We next aimed to increase mTOR signaling via pharmacological intervention. Because activation of TrkB receptor is decreased in cKOs, treating mice with exogenous BDNF may not be effective. To circumvent this issue while stimulating the same signaling cascades, we injected neonatal pups with (1-3)IGF-1 (GPE), a tripeptide cleaved from the N-terminus of IGF-1 (44). Pups were injected daily from P0 to P7 with 10 μg/g (1-3)IGF-1 or vehicle based on a previously described treatment paradigm (45). Eight hours post-injection on P7, pups were sacrificed, and brains were fixed (FIG. 7F).
(1-3)IGF-1 treatment: (1-3)IGF-1 was acquired from VWR/Bachem (catalog #H-2468.1000) and dissolved in saline with 0.01% BSA fresh every day. Intraperitoneal injections of 10 μg/g (1-3)IGF-1 or vehicle were delivered daily at 8 a.m. starting on P1 and ending on P7. […] Pups were individually removed, injected, and placed back in the home cage with the dam. On P7, 6 hours post-injection, pups were rapidly decapitated for downstream analysis.
Immunohistochemistry: Adult animals were perfused with 4% PFA, and pups underwent rapid decapitation and dissection. After 18 hours post-fixation in 4% PFA, brains were incubated in a 20% sucrose/PBS solution at 4° C. for 2-3 days and embedded in Tissue-Tek OCT compound (Sakura). 40 μm sections were collected on Superfrost/Plus slides and stained. The following primary antibodies were used following antigen retrieval (10 min. in boiling 10× citrate buffer): anti-cleaved caspase 3 (1:1000, Cell Signaling Technology, catalog #9661S), anti-Ctip2 (1:2000, Abcam, catalog #18465), anti-p-S6 Ser235/236 (1:2000, Cell Signaling Technology, catalog #4858S). AlexaFluor-488, -594, and -647-conjugated secondary antibodies (1:2000) were purchased from Invitrogen. DAPI was used for nuclear labeling (Invitrogen, catalog #D3571). Slides were mounted with Vectashield HardSet and images were obtained with an Olympus VS120 microscope and processed using the VS-DESKTOP software (Olympus) or ImageJ (NIH).
For p-S6 intensity, P0, P7, and adult sections were stained with Ctip2 and p-S6 (Ser235/236). […] After image acquisition, Ctip2+ neurons were measured for p-S6 mean gray intensity. 25-30 neurons were measured per section and 2 plane-matched sections were analyzed per animal.
For soma size analysis, sections were stained with NeuroTrace green fluorescent Nissl stain (1:100 dilution, Life Technologies catalog #N-21480) and washed with PBS. After image acquisition, somas in each layer in somatosensory cortex (51) were measured using the ImageJ freehand tool. Layers were denoted based on anatomical boundaries using DAPI staining. 30-35 somas were measured per layer and 2-3 plane-matched sections were analyzed per animal. This was done based on a previously published technique (8).

[3] = test system: ASD mouse models; conditions: cited from earlier work

(1-3)IGF-1: a tripeptide cleaved from the N-terminus of IGF-1; acquired from VWR/Bachem, CAS No. 32302-76-4 (GPE; Insulin-like growth factor 1; UniProt P05019 49-51, looked up, fragment)
puromycin incorporation (protein synthesis) in adult cHets ([1]; adult, chronic treatment): significantly increased; also recorded: restores decreased protein synthesis
puromycin incorporation in adult controls ([1]; adult, relative to vehicle-treated controls): significant decrease in puromycin incorporation
puromycin incorporation (protein synthesis) in neonatal cHets ([1]; daily treatment from P0 to P7): increased puromycin abundance; also recorded: restores decreased protein synthesis
puromycin incorporation in neonatal controls ([1]; daily treatment from P0 to P7): without impacting controls
cortex mass of controls ([2]; control pups, 10 μg/g daily to P7): no effect
p-S6 per layer V neuron in cHets ([2]; neonatal cHets, 10 μg/g daily to P7, Ctip2+ neurons): normal levels; also recorded: rescues the decreased p-S6
soma size of layer V neurons in cHets ([2]; neonatal cHets, 10 μg/g daily to P7, Nissl stain): comparable to controls; also recorded: rescues the decreased soma size
cortex mass of cHets ([2]; neonatal cHets, 10 μg/g daily to P7, analysed P7, vs vehicle): rescues the decreased cortex mass
brain penetrance ([3]; ASD mouse models, dosage 10 μg/g (10 mg kg)): brain penetrance
signaling downstream of IGF-1 ([3]; within 3 hours post-injection): increased signaling downstream of IGF-1
